Experimental findings from US9040568B2, “Pharmaceutical compositions for the treatment of pain” (AbbVie Inc., priority 2009, dated 2015) are described below.

Assay [1] addresses T1, human α4β2 nicotinic acetylcholine receptor subtype expressed in HEK-293 cells (Homo sapiens, UniProt P17787+P43681).
T1 construct: expressed in transfected cells
As to the kind of experiment: Calcium flux assay (FLIPR) in HEK-293 cells expressing human α4β2. In kind it is cell-based. As for the experimental part:
Calcium Flux Assays Using Cells Expressing nAChR Subtypes
Human embryonic kidney (HEK) 293 cells stably expressing human α4β2 or α3β4 combinations are grown to confluency in 162 cm^2 tissue culture flasks in DMEM media supplemented with 10% FBS and 25 μg/ml zeocin and 200 μg/ml hygromycin B. IMR-32 neuroblastoma cells (ATCC) are grown to confluency in 162 cm^2 tissue culture flasks in minimum essential media supplemented with 10% FBS and 1 mM sodium pyruvate, 1% non-essential amino acids and 1% antibiotic-antimycotic. The cells are then dissociated using cell dissociation buffer and 100-150 μl per well of 3.5×10^5 cells/ml cell suspension (˜50,000-100,000 cells/well) was plated into 96-well black plates (poly-D-lysine precoated) with clear bottom and maintained for 24-48 hours in a tissue culture incubator at 37° C. under an atmosphere of 5% CO2: 95% air. Other clonal cell lines or primary cell cultures that express endogenous α4* nicotinic receptors may also be used in this assay. Calcium flux was measured using calcium-3 assay kit (Molecular Devices, Sunnyvale, Calif.) or fluo-4 (Invitrogen). A stock solution of the dye was prepared by dissolving each vial supplied by the vendor in Hank's balanced salt solution buffer (HBSS) or 150 mM NMDG, 20 mM CaCl2 containing 10 mM HEPES, The stock solution was diluted 1:20 using the same buffer before use. The growth media was removed from the cells. The cells were loaded with 100 μl of the dye per well and incubated at room temperature for up to one hour for HEK 293 clonal stable cell lines or 30 minutes-45 minutes at 37° C. for IMR-32 cells Fluorescence measurements were read simultaneously from all the wells by a Fluorometic Imaging Plate Reader (FLIPR) at an excitation wavelength of 480 nm and an emission wavelength of 520 nm. Baseline fluorescence was measured for the first 6 seconds at which 3× concentrations of modulator/test compounds were added to the cell plate at 50 μl and incubated for five minutes. The fluorescence intensity was captured every second for the first 1 minute followed by every 5 seconds for an additional 4 minutes. This procedure was followed by 50 μl of 4× concentration of agonist and readings were taken for a period of 3-5 minutes as described above. Data was normalized to maximal responses and plotted as a function of concentration. The concentration dependence of changes fluorescence responses was fitted by nonlinear regression analysis (GraphPad Prism, San Diego, Calif.) to obtain EC50 values.
The positive allosteric modulator effects on α4β2nAChRs exemplified by 3-(3-pyridin-3-yl-1,2,4-oxadiazol-5-yl)benzonitrile (Compound 1) and 3,5-di(pyridin-3-yl)-1,2,4-oxadiazole (Compound 2) can be identified by measuring their potentiating effect to fluorescence changes in intracellular calcium using a fluorimetric plate reader. The potentiating effect of an α4β2 modulator on α4β2 receptor can also be illustrated by concentration responses to α4β2 agonists, for example 5-[(2R)-azetidin-2-ylmethoxy]-2-chloropyridine (Compound A) and (3R)-1-pyridin-3-ylpyrrolidin-3-amine (Compound B), in presence of a fixed concentration of PAM. […] In addition to compound A and B, other known nicotinic agonists can be left-shifted in presence of α4β2 PAM such as 3-(3-(pyridin-3-yl)-1,2,4-oxadiazol-5-yl)benzonitrile (Compound 1, FIG. 2C). […]
For orientation: Calcium flux is commonly read through the fluorescence of an indicator in the cells.

In another assay the target is α4β2 nAChR (UniProt P09483+P12390). Nature of the assay: [^3H]-cytisine binding assay. From the text:
One manner for characterizing α4β2 receptor ligands is by a binding assay. […] The [^3H]-cytisine binding assays have been well reported; however, further details for carrying out the assays can be obtained in International Publication No. WO 99/32480; U.S. Pat. Nos. 5,948,793 and 5,914,328; WO 2004/018607; U.S. Pat. No. 6,809,105; WO 00/71534; and U.S. Pat. No. 6,833,370.

The subject of assay [2] is nerve injury induced mechanical allodynia. As to the kind of experiment: Chung model of neuropathic pain (L5-L6 spinal nerve ligation, tactile allodynia, von Frey). Type of assay: in vivo, rat. Here is the method: To assess whether α4β2 PAM can increase antinociceptive responses of agonists in vivo, the following study was conducted. The materials and methods used to accomplish the study follow.
Male Sprague-Dawley rats (Charles River, Wilmington, Mass.) weighing 120-150 grams at time of surgery were utilized. These animals were group housed in AAALAC approved facilities at Abbott Laboratories in a temperature-regulated environment with lights on between 0700 and 2000 hours. Food and water was available ad libitum except during testing. All animal handling and experimental protocols were approved by an institutional animal care and use committee (IACUC). All experiments were performed during the light cycle.
5[(2R)-Azetidin-2-ylmethoxy]-2-chloropyridine (Compound A, 1-100 nmol/kg) and 3-(3-pyridin-3-yl)-1,2,4-oxadiazol-5-yl)benzonitrile (α4β2 PAM Compound 1, 1-35 μmol/kg, i.p.) was used. Compound A and D was prepared in saline and injected in solution in a volume of 2 ml/kg body weight 30 minutes before behavioral evaluation. Compound 1,3-(3-(pyridin-3-yl)-1,2,4-oxadiazol-5-yl)benzonitrile, was prepared in 30% hydroxybetacyclodextrin and injected in solution in a volume of 4 ml/kg body weight immediately before Compound A. For studies with Compound D, the doses tested ranged from 0.3-30 μmol/kg i.p.
To produce neuropathic pain, tight ligation of the L5-L6 spinal nerves was performed. As previously described in detail by Kim and Chung (Kim S H and Chung J M (1992), Pain 50: 355), following sterilization procedures, a 1.5 cm incision was made dorsal to the lumbosacral plexus. The paraspinal muscles (left side) were separated from the spinous processes, the L5 and L6 spinal nerves isolated, and tightly ligated with 3-0 silk thread. Following hemostasis, the wound was sutured and coated with antibiotic ointment. The rats were allowed to recover and then placed in a cage with soft bedding for 7-14 days before behavioral testing for mechanical allodynia.
Tactile allodynia was measured using calibrated (force; g) von Frey filaments (Stoelting, Wood Dale, Ill.). Briefly, rats were placed into individual plexiglass containers and allowed to acclimate for 15-20 minutes before testing. Withdrawal threshold was determined by increasing and decreasing stimulus intensity and estimated using a Dixon non-parametric test (Chaplan et al., 1994; Chaplan S R, Bach F W, Pogrel J W, Chung J M and Yaksh T L (1994) J Neurosci Methods 53:55-63). Only rats with threshold scores<4.5 g were considered allodynic and utilized in further testing. A percent of maximal possible effect (% M.P.E.) of the tested compounds was calculated according to the formula: ([post-drug threshold]-[baseline threshold])/([maximum threshold]-[baseline threshold])×100%, where maximum threshold was equal to 15 g.
Analysis of the in vivo data was carried out using analysis of variance. Where appropriate, Bonferroni's Multiple Comparison Test was used for post-hoc analysis. The level of significance was set at p less than 0.05. Data are presented as mean±S.E.M.

A further assay deals with T2, α4β2nAChR modulator site (Homo sapiens, UniProt P17787+P43681).
T2 construct: membrane enriched fractions from human cortex (ABS Inc., Wilmington, Del.); tissue ABS Inc., Wilmington, Del; host or cells: human cortex (frontal cortex) membrane enriched fractions
As to the kind of experiment: [^3H]-POB binding, membrane enriched fractions from human cortex. The settings on record: saturation binding, human frontal cortex membranes, 4° C. As for the experimental part:
In addition to the assays previously described for assessing nicotinic acetylcholine receptor positive allosteric modulators (fluoroscence-based measurements, electrophysiology measurements using Xenopus oocytes or cell lines), the receptor interactions of positive allosteric modulators at α4β2 nAChRs also can be evaluated according to the [^3H]-POB binding assay, which was performed as described below.
[^3H]-POB ([^3H]-3-(5-(pyridin-3-yl)-1,2,4-oxadiazol-3-yl)benzonitrile) binding to a α4β2nAChR modulator site was determined using membrane enriched fractions from human cortex (ABS Inc., Wilmington, Del.). […] Non-specific binding was determined in the presence of 30 μM unlabeled 3-(5-(pyridin-3-yl)-1,2,4-oxadiazol-3-yl)benzonitrile. Under these conditions, saturable binding of [^3H]-POB binding was measured in membrane enriched fractions from human frontal cortex (FIG. 10). […]
For use in concentration-inhibition assays, seven log-dilution concentrations of test compounds containing […] of protein, and 50 nM [^3H]-POB (16.4 Ci/mmol) were incubated in a final volume of 500 μL for 75 minutes at 4° C. in duplicate. Non-specific binding was determined in the presence of 30 μM 3-(5-(pyridin-3-yl)-1,2,4-oxadiazol-3-yl)benzonitrile. […] IC50 values were determined by nonlinear regression in Microsoft® Excel or Assay Explorer. […]

[3] abbreviates: co-applied with the PAM Compound 1, α4β2 nAChRs.

Structures can show the parent of a compound that is named as a salt.

T1 sequence (P43681 29-627 limits assumed): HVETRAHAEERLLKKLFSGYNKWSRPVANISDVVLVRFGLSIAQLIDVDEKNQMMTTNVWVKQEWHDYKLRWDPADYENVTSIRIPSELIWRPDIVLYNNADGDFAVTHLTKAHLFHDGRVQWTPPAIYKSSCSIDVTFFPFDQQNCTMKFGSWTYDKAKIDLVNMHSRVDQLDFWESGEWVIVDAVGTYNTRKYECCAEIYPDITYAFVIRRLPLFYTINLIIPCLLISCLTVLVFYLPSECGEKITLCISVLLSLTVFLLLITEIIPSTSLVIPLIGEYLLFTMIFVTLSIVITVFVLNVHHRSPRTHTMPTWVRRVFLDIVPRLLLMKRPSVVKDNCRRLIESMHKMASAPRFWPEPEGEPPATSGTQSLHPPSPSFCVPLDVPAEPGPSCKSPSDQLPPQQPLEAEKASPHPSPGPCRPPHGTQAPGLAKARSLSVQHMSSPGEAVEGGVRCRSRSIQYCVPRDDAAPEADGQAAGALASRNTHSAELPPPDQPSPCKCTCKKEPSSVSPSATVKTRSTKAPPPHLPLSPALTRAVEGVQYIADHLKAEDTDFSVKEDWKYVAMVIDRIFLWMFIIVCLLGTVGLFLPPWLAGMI
T1 sequence (P17787 26-502): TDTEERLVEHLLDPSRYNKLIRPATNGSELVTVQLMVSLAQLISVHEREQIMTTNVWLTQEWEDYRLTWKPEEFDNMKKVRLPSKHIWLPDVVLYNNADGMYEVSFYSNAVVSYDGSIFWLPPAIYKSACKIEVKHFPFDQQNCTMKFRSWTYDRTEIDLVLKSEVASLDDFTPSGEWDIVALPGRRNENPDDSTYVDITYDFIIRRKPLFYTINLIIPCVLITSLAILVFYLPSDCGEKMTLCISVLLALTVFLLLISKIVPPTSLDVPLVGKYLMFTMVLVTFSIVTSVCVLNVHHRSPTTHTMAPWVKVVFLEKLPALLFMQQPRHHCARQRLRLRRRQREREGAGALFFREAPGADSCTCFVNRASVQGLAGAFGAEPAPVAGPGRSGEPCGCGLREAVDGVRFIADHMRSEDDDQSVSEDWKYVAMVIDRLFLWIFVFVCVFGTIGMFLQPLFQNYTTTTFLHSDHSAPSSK
T2 sequence (P43681 29-627 limits assumed): as the sequence (P43681 29-627 limits assumed) above
T2 sequence (P17787 26-502): as the sequence (P17787 26-502) above

On to `Cc1ncccc1OC[C@@H]1CCCN1` [Compound C, 2-methyl-3-(2-(S)-pyrrolidinylmethoxy)pyridine], for which the calcium response entry is “evoked robust responses” in assay [1] (setting [3]) and “does not evoke a calcium response” in assay [1] (ligand alone, α4β2 nAChRs).
As a reminder, the Ki is a measure of affinity in units of concentration, obtained from inhibition or displacement. Read a high Ki as lower affinity. As for `c1ccc2ncc(N3C[C@@H]4CN[C@@H]4C3)cc2c1` [Compound D, (1S,5S)-3-(3,6-diaza-bicyclo[3.2.0]hept-3-yl)-quinoline], the calcium response result in assay [1] (setting [3]) is “evoked robust responses”; in assay [1] (ligand alone, α4β2 nAChRs) it was “does not evoke a response”. Moreover, the inhibition constant (Ki) on α4β2 nAChR was 6 nM. In addition, the “efficacy in neuropathic pain” value in assay [2] (administered alone) is given as “ineffective in reversing neuropathic pain”; in assay [2] (combined with the PAM (Compound 1)), “significant efficacy can be realized”.
For the compound `Fc1ccc(-c2nc(-c3cncnc3)no2)cc1F` [Example 101, 5-(3,4-difluorophenyl)-3-(pyrimidin-5-yl)-1,2,4-oxadiazole tosylate], the “Activity (allosteric effects-potentiation of fluorescence responses)” value in assay [1] is “a (“a” denotes as activity range from 200-400%)”.
Compound `[3H]c1cncc(-c2nc(-c3cccc(C#N)c3)no2)c1` [[^3H]-POB, [^3H]-3-(5-(pyridin-3-yl)-1,2,4-oxadiazol-3-yl)benzonitrile] showed a Bmax on α4β2nAChR modulator site of 2900±500 fmol/mg protein.
